In PubChem BioAssay (NCI) one finds GI50 and TGI data, which are given here for 13 molecules.

Among the test systems are COLO 205 colon; HCT-15 colon; MOLT-4 leukemia; PC-3 prostate; SK-MEL-5 melanoma; SNB-75 CNS; T-47D breast; HCC-2998 colon; NCI-H23 lung; OVCAR-5 ovarian.
Assay in all cases: NCI-60 cell line screen, 48 h

SMILES strings stand for the structures. Values joined by “and” are separate entries in the source; they are usually repeats but may differ in a detail not shown here. Equal values may be shown once.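 Exposure lasted 48 hours, with cells grown in 96-well plates and compounds tested at five concentrations. At the GI50, growth is halved. TGI: total growth inhibition.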 A value given as a limit tells only on which side of the number the result lay.

For the molecule `CCOC(=O)c1sc(=S)c2c(C(=O)c3ccccc3)c(C(=O)c3ccccc3)sc2c1C(=O)OCC`, the GI50 with COLO 205 colon is 15.8 µM; with HCT-15 colon it was 4.1 µM; with MOLT-4 leukemia, 3.58 µM; in the assay on PC-3 prostate, 3.61 µM; with SK-MEL-5 melanoma, 2.38 µM; in the assay on SNB-75 CNS, 22.6 µM. Further, the GI50 in the assay with T-47D breast is 8.64 µM. Moreover, the TGI with COLO 205 colon is 45.6 µM; in the assay with HCT-15 colon, above 100 µM; in the assay on MOLT-4 leukemia it was above 100 µM; in the assay with PC-3 prostate, 35.4 µM; with SK-MEL-5 melanoma, 5.76 µM; in the assay with SNB-75 CNS, above 100 µM. The molecule also gave a TGI with T-47D breast above 100 µM.
On to `C/C(=N\NC(=S)N(C)C)c1ncc[nH]1`, for which the TGI in the assay with HCC-2998 colon was 38.6 µM; in the assay with HCT-15 colon it was above 100 µM; in the assay on MOLT-4 leukemia, 24 µM; with NCI-H23 lung it was 5.07 µM; in the assay with OVCAR-5 ovarian, 6.19 µM; with SNB-75 CNS it was 85.9 µM.
For `CCCCCCCCCCCCCCCCC(C(=O)O)C(O)(CC(=O)O)C(=O)O` (configuration not stated), the TGI with COLO 205 colon was 35 µM; in the assay with HCT-15 colon it was above 100 µM; in the assay with MOLT-4 leukemia it was 61.6 µM; in the assay with NCI-H23 lung, 64.6 µM; in the assay on OVCAR-5 ovarian, 35.1 µM; with PC-3 prostate, 38.8 µM. For the same molecule, the TGI in the assay with SK-MEL-5 melanoma was above 100 µM; in the assay on SNB-75 CNS, 43.8 µM.
Turning to `OCCN(CO)CN(CN(CO)CCO)c1nc(N(CN(CO)CCO)CN(CO)CCO)nc(N(CN(CO)CCO)CN(CO)CCO)n1`, the GI50 was 1.51 ng/mL with MOLT-4 leukemia; 1.57 ng/mL in the assay on NCI-H23 lung; 2.02 ng/mL in the assay on OVCAR-5 ovarian; 1.48 ng/mL in the assay with PC-3 prostate; 0.723 ng/mL in the assay with SNB-75 CNS; 1.09 ng/mL with T-47D breast. For the same molecule, the TGI with MOLT-4 leukemia stood at 4.49 ng/mL; in the assay on NCI-H23 lung, 5.24 ng/mL; with OVCAR-5 ovarian, 76.8 ng/mL; in the assay with PC-3 prostate, 4.46 ng/mL; with SNB-75 CNS it was 2.41 ng/mL; in the assay on T-47D breast, 3.21 ng/mL.
Turning to `CCCCCCC(C)CC(CCCCCC)NCCOC(=O)c1ccc([N+](=O)[O-])cc1` (configuration not stated), the TGI in the assay on COLO 205 colon was 17.9 µM and 12.8 µM; in the assay with HCC-2998 colon it was 42.8 µM and 9.35 µM; in the assay on HCT-15 colon, 33.1 µM and 26.7 µM; with NCI-H23 lung it was 38.9 µM and 34.5 µM; with OVCAR-5 ovarian, > 100 µM and 50 µM; in the assay on SK-MEL-5 melanoma, 28.4 µM and 23.4 µM. Besides, the TGI in the assay with SNB-75 CNS was 30.4 µM and 33.4 µM; in the assay with T-47D breast, 39.3 µM and 38.1 µM.
`C/C(=N\NC(N)=S)c1ccc2c(c1)OCO2`: the TGI with COLO 205 colon, with HCC-2998 colon, in the assay on HCT-15 colon, in the assay on MOLT-4 leukemia, in the assay on NCI-H23 lung and in the assay with OVCAR-5 ovarian was above 100 µM each time. The TGI with SK-MEL-5 melanoma and in the assay with SNB-75 CNS was above 100 µM in each case.
On to `COc1cc2c(/C=C3/C(=O)Nc4ccccc43)c(Cl)n(Cc3ccccc3)c2cc1C`, for which the GI50 in the assay on COLO 205 colon is 31.8 µM; with HCT-15 colon it was above 100 µM; in the assay with MOLT-4 leukemia, 6.05 µM; with NCI-H23 lung it was above 100 µM; with OVCAR-5 ovarian it was above 100 µM; in the assay with PC-3 prostate, 87.9 µM. Also, the GI50 in the assay with SK-MEL-5 melanoma was 42.2 µM; in the assay with T-47D breast it was 41.9 µM. For the same molecule, the TGI in the assay with COLO 205 colon, in the assay on HCT-15 colon, in the assay with MOLT-4 leukemia, with NCI-H23 lung, with OVCAR-5 ovarian and in the assay on PC-3 prostate was above 100 µM each time. Also, the TGI in the assay on SK-MEL-5 melanoma and in the assay with T-47D breast was above 100 µM in each case.
Turning to `CC(=O)/C=C1/c2ccccc2N(C(C)=O)C1O` (configuration not stated), the TGI in the assay with COLO 205 colon, in the assay with HCC-2998 colon, in the assay on HCT-15 colon, with MOLT-4 leukemia, in the assay with NCI-H23 lung and with SNB-75 CNS was above 100 µM each time.
On to `Cc1cccc(C(C)(C)C)c1NC(=O)CC1C(=O)Nc2ccccc2S1=O` (configuration not stated), for which the TGI with COLO 205 colon is 40.9 µM; in the assay with HCC-2998 colon, above 100 µM; in the assay on HCT-15 colon, above 100 µM; in the assay on MOLT-4 leukemia, 69.2 µM; in the assay with NCI-H23 lung, 67.6 µM; in the assay on OVCAR-5 ovarian it was above 100 µM. Moreover, the TGI in the assay on SNB-75 CNS is above 100 µM.
Turning to `CCc1ccccc1NC(=O)CCc1nc(=S)[nH][nH]1`, the TGI with COLO 205 colon, in the assay with HCC-2998 colon, with HCT-15 colon, with MOLT-4 leukemia, in the assay on NCI-H23 lung and with OVCAR-5 ovarian was above 100 µM each time. The TGI with SK-MEL-5 melanoma and with SNB-75 CNS was above 100 µM in each case.
As for `COc1ccc(C2(CN(C)C)COc3cc(OC)c(OC)cc3C2=O)cc1OC` (configuration not stated), the TGI is 76.2 µM in the assay on COLO 205 colon; above 100 µM in the assay with HCC-2998 colon; above 100 µM with MOLT-4 leukemia; 94.4 µM with NCI-H23 lung; 60.7 µM in the assay on SK-MEL-5 melanoma; above 100 µM with SNB-75 CNS.
In the case of `COc1cc2c(cc1OC)-c1c(cnn1C1OC(COC(C)=O)C(OC(C)=O)C(OC(C)=O)C1OC(C)=O)CC2` (configuration not stated), the TGI in the assay with COLO 205 colon, with HCT-15 colon, in the assay on MOLT-4 leukemia, with NCI-H23 lung, in the assay with OVCAR-5 ovarian and with SK-MEL-5 melanoma was above 100 µM throughout. Further, the TGI in the assay with SNB-75 CNS stood at 98.2 µM.
For `COc1ccc(Cl)cc1N1C(=O)C(Cl)=C(Nc2cccc(O)c2)C1=O`, the GI50 with COLO 205 colon was 21.6 µM; in the assay with HCT-15 colon, 14.4 µM; in the assay with MOLT-4 leukemia, 15.4 µM; in the assay with NCI-H23 lung, 16.6 µM; in the assay on OVCAR-5 ovarian, 28.7 µM; with PC-3 prostate, 17.8 µM. For the same molecule, the values for the GI50 with SK-MEL-5 melanoma and in the assay on T-47D breast were 23 µM and 22.6 µM, respectively. The TGI in the assay with COLO 205 colon was found to be 57.1 µM; in the assay with HCT-15 colon, 29.1 µM; with MOLT-4 leukemia, 49.4 µM; in the assay on NCI-H23 lung it was 41.4 µM; in the assay with OVCAR-5 ovarian, 94.4 µM; in the assay on PC-3 prostate, 38.6 µM. In addition, the results for the TGI in the assay on SK-MEL-5 melanoma and in the assay with T-47D breast were 39.8 µM and above 100 µM, respectively.
